This note sets out measurements from US20260216182A1, “PYRIDAZINE NLRP3 INHIBITOR COMPOUND, PHARMACEUTICAL COMPOSITION, AND PREPARATION METHOD THEREFOR AND USE THEREOF” (CHANGCHUN GENESCIENCE PHARMACEUTICAL CO., LTD., priority 2022, published 2026).

Read-outs that look alike come from different tables or passages of the source.

The test system of one test is mouse NASH model. The experiment in a line: Mouse NASH model test (HFD + fructose), combination with semaglutide. The conditions noted are these: low/high dose semaglutide alone. The test is classed as in vivo, mice. As to the method:
Test Example 6 Mouse NASH Model Test
After the animals arrived and acclimatized for 1 week, they were randomly divided into 2 groups. 48 mice were fed a high-fat diet (HFD) and had free access to 15% fructose water (w/w). After the animals were fed for 20 weeks, they were fasted for 6 h, and fasting blood glucose (FBG) was monitored by a blood glucose meter. Orbital blood was taken from all animals, and serum was collected by centrifugation to detect serum ALT levels. Animals were randomly divided into 6 groups according to their body weight, FBG and ALT levels. After that, the high fat feed (HFD) was replaced with the modified high fat feed (mHFD), and the mice had free access to 15% fructose water (v/w). The 8 mice in the other group were fed normal diet and water.
The first end point of the experiment: After 8 weeks of administration, the end point body weight was recorded and the animals were fasted for 6 h, and fasting blood glucose was measured with a blood glucose meter. The mice were then euthanized by CO2 and serum was collected by orbital blood sampling and stored at −80° C. for insulin and biochemical analysis. The animal's liver was taken and the liver weight was recorded. The liver was divided into four parts, one part was quick-frozen in liquid nitrogen for biochemical analysis, one part was placed in tissue fixative for pathological analysis, one part was stored in RNAlater for qPCR detection (backup for later use), and one part was quick-frozen in liquid nitrogen for possible subsequent detection.
The second end point of the experiment: 3 mice were kept in each group for 6 weeks for further observation. The end point body weight was recorded and the mice were fasted for 6 h. Fasting blood glucose was tested with a blood glucose meter. The mice were then euthanized by CO2 and serum was collected by orbital blood sampling and stored at −80° C. for insulin and biochemical analysis. The animal's liver was taken and the liver weight was recorded. The liver was divided into four parts, one part was quick-frozen in liquid nitrogen for biochemical analysis, one part was placed in tissue fixative for pathological analysis, one part was stored in RNAlater for qPCR detection (backup for later use), and one part was quick-frozen in liquid nitrogen for subsequent detection.

The target in another test is T1, NLRP3 (Homo sapiens, UniProt Q96P20).
T1 construct: endogenous in cells; host or cells: THP-1 (human monocyte, PMA-differentiated, LPS-primed, nigericin-stimulated)
The experiment in a line: IC50 of NLRP3 inhibitors in reducing IL-1β secretion by THP-1 cells (PMA, LPS, nigericin; ELISA). The test is classed as cell-based. The conditions noted are these: compound + nigericin 1 h. As to the method:
Test Example 1 Experiment on Detection of IC50 of NLRP3 Inhibitors in Reducing the Level of IL-1β Secretion by THP-1 Cells
In this experiment, we use the human monocyte THP-1 to study the inhibitory activity of NLRP3 inhibitor on the secretion of IL-Iβ by cells. Human THP-1 cells are treated with crotonol-12-tetradecanoate-13-acetate (PMA) to differentiate into mature macrophage models. Then, according to the two stages of inflammasome formation in cells (assembly and activation), the cells are stimulated with lipopolysaccharide (LPS) and nigericin in turn, ultimately promoting the extracellular release of IL-1β by THP-1 cells. The first stage of inflammasome formation involves stimulating cells with LPS (lipopolysaccharide), an agonist of the Toll-like receptor TLR4, to activate the expression of the inflammasome-associated proteins NLRP3, caspase 1, and pro-IL-1β, a precursor of IL-1β. The second stage of inflammasome formation involves the addition of the potassium ion carrier nigericin, which causes a series of membrane potential changes in THP-1 cells, destroys the cell membrane structure, causes the efflux of cellular potassium ions, further stimulates the oligomerization of NLRP3 monomers to form NLRP3 oligomers, and begins to recruit ASC and pro-caspase-1 to assemble the NLRP3 inflammasome complex containing a large amount of pro-caspase-1. The pro-caspase-1 on the activated NLRP3 inflammasome is enzymatically self-activated to form a large amount of active caspase-1. The activated caspase-1 further enzymatically promotes the conversion of pro-IL-1β into mature IL-1β that can be secreted.
(1) Cell suspensions were collected. The cells were centrifuged at 1000 rpm for 4 min, the supernatant was discarded, the cells were resuspended with 1 mL of test medium, and then the cell culture medium was gently pipetted up and down with a pipette and its tip to break up the cell aggregates. After counting the cells, the THP-1 cells were resuspended with complete RPMI medium 1640 containing PMA and seeded into 96-well plates and cultured in a 37° C., 5% CO2 incubator for 72 h.
(2) The culture medium was taken out from each well with an automatic plate washer dispenser EL406 and each well was rinsed twice with PBS. To each well, 96 μL of RPMI 1640 medium containing LPS was added. The cells were cultured in a 37° C., 5% CO2 incubator for 4 h.
(3) To each well, 2 μL of the compound and 2 μL of nigericin sodium salt were added, and the final compound concentration selected was 5000 nM, 1000 nM, 200 nM, 40 nM, 8 nM, 1.6 nM, 0.32 nM, 0 nM, respectively. The cells were cultured in a 37° C., 5% CO2 incubator for 1 h.
(4) An appropriate amount of supernatant was taken out, diluted 100 times, and the content of IL-1β in the supernatant was detected using Human IL-1 beta Valukine ELISA kit.
(In general: In an ELISA, binding on a coated surface is turned into a signal by an enzyme label.)

The next test concerns IL-1β. As to the kind of experiment: Mouse acute peritonitis model (LPS/ATP), IL-1β in peritoneal lavage fluid and blood. The test is classed as in vivo, C57BL/6 mice. The conditions noted are these: Mus musculus, 10 mg/kg oral, vs vehicle group. As to the method:
Test Example 2: Mouse Acute Peritonitis Model Evaluation Experiment
Male C57BL/6 mice were orally administered with a 10 mg/kg dose of the test compound or control vehicle, and then injected intraperitoneally with 1 μg of E. coli 055: B5 ultrapure lipopolysaccharide (LPS) suspension 1 h later, followed by an intraperitoneal injection of 0.5 ml of 30 mM disodium salt ATP suspension (in PBS, the pH of the ATP solution was adjusted to 7.2 before injection) 2 h later. After 30 min, all animals would be euthanized by carbon dioxide, and blood and peritoneal lavage fluid would be collected. The peritoneal lavage fluid was kept at 4° C.
Preparation of peritoneal lavage fluid: The peritoneal cavity would be lavaged with ice-cold PBS (3 mL) containing 25 U/mL heparin and 10% heat-inactivated FBS. Prior to use, one tablet of the protease inhibitor mixture was added per 50 mL of buffer. The collected lavage fluid would be centrifuged (centrifugation conditions: 1000g, 4° C., 10 min) to remove cells and cell debris, and the clarified samples would be stored at −80° C. for measurement of cytokine IL-1β.
The mouse IL-1β/IL-1F2 DuoSet ELISA kit (R&D Systems) was used to measure the changes in IL-1β cytokine levels in peritoneal lavage fluid and serum. By comparing with the Vehical group, the inhibition rate of the compound on IL-1β was calculated.

[1] abbreviates: read-out: IL-1β Peritoneal lavage fluid (inhibition rate).
Setting [2] is: read-out: IL-1β Plasma (inhibition rate).

The term IC50 denotes the concentration at which inhibition is half-maximal. In general, inhibition refers to the change of the read-out against control, counted positive when it falls.

T1 sequence (Q96P20 whole entry): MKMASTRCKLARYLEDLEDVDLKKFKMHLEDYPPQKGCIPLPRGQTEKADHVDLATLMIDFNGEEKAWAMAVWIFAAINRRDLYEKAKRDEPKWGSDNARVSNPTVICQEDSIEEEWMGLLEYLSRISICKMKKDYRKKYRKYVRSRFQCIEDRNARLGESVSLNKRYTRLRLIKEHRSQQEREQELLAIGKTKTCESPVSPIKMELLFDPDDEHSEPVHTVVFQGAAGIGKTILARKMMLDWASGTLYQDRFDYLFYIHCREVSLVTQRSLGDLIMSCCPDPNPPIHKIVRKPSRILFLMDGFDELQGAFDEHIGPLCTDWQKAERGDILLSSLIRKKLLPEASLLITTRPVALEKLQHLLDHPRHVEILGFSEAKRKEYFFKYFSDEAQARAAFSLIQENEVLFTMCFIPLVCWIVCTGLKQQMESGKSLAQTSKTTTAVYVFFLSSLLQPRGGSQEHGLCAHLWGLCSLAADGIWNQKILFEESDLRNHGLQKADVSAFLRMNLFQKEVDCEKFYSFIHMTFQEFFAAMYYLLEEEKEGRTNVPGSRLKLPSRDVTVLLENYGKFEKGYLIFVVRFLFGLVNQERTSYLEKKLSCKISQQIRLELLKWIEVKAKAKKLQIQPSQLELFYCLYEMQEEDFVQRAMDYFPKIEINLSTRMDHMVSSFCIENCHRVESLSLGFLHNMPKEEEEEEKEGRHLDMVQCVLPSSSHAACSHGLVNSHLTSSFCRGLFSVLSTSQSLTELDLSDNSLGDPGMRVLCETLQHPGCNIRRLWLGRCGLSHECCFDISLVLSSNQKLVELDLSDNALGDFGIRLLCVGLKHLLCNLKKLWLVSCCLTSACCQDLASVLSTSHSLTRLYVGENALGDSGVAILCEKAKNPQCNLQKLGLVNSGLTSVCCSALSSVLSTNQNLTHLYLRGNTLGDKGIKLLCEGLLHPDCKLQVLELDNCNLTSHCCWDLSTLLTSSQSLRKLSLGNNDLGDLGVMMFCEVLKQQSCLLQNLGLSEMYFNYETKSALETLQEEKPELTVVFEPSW

Consider semaglutide [reference compound], for which the “rebound of body weight after drug withdrawal” value in the test with mouse NASH model is “neither the control compound combined with semaglutide nor the groups of low/high dose semaglutide alone inhibited the rebound of body weight”.

Take `CC#Cc1ccc2c(-c3c(O)cc(Cl)cc3F)nnc(NC[C@H](O)CO)c2c1` [Compound 063, (2S)-3-((4-(4-chloro-2-fluoro-6-hydroxyphenyl)-7-(prop-1-yn-1-yl)phthalazin-1-yl)amino) propan-1,2-diol]: at NLRP3, the IC50 was found to be 15 nM. For the same compound, the inhibition at 10 mg/kg in the test on IL-1β (setting [1]) was found to be 79%; with IL-1β (setting [2]) it was 74%.

On to `CC#Cc1ccc2c(-c3c(O)cc(C(F)(F)F)cc3F)nnc(NC[C@H](O)CO)c2c1` [Compound 064, (2S)-3-((4-(2-fluoro-6-hydroxy-4-(trifluoromethyl)phenyl)-7-(prop-1-yn-1-yl)phthalazin-1-yl)amino) propan-1,2-diol], for which the IC50 at NLRP3 worked out at 18 nM. Besides, the inhibition at 10 mg/kg in the test on IL-1β (setting [1]) turned out to be 81%; in the test with IL-1β (setting [2]), 90%.

For `CC(=O)c1ccc2c(-c3ccc(C(F)(F)F)cc3O)nnc(NC[C@H](O)CO)c2c1` [Compound 082], the IC50 at NLRP3 was 32 nM. In addition, the figures for the inhibition at 10 mg/kg with IL-1β (setting [1]) and with IL-1β (setting [2]) were 0% and 12%, respectively.

Take `CC(C)(O)CNc1nnc(-c2ccc3sc(F)cc3c2O)c2ccc(C#N)cc12` [Compound 019, 1-(2-fluoro-4-hydroxybenzo[b]thiophen-5-yl)-4-((2-hydroxy-2-methylpropyl)amino) phthalazine-6-carbonitrile]: the 50% inhibitory concentration (IC50) at NLRP3 was 111 nM.

`Cc1cc(Cl)cc(O)c1-c1nnc(NCC(C)(C)O)c2cc(-n3cccn3)ccc12` [Compound 026, 5-chloro-2-(4-((2-hydroxy-2-methylpropyl)amino)-6-(1H-pyrazol-1-yl)phthalazin-1-yl)-3-methylphenol]: the IC50 on NLRP3 amounted to 35 nM.

For `CCn1cc(-c2ccc3c(-c4c(C)cc(Cl)cc4O)nnc(NCC(C)(C)O)c3c2)cn1` [Compound 051, 5-chloro-2-(6-(1-ethyl-1H-pyrazol-4-yl)-4-((2-hydroxy-2-methylpropyl)amino)phthalazin-1-yl)-3-methylphenol], at NLRP3, the IC50 was 46 nM.

For `Cc1cc(Cl)cc(O)c1-c1nnc(NCC(C)(C)O)c2cc(-n3nccn3)ccc12` [Compound 028, 5-chloro-2-(4-((2-hydroxy-2-methylpropyl)amino)-6-(2H-1,2,3-triazol-2-yl)phthalazin-1-yl)-3-methylphenol], at NLRP3, the IC50 worked out at 35 nM.

With `CC(=O)c1ccc2c(-c3ccc(C(F)(F)F)cc3O)nnc(N[C@@H]3CCCC[C@H]3O)c2c1` [Compound 081], at NLRP3, the IC50 was determined as 5.3 nM. Also, the results for the inhibition at 10 mg/kg in the test with IL-1β (setting [1]) and in the test with IL-1β (setting [2]) were 45% and 61%, respectively.

On to `COC(=O)N1CCC[C@@H](Nc2nnc(-c3ccc(Cl)cc3O)c3ccncc23)C1` [Compound 010, Methyl (R)-3-((1-(4-chloro-2-hydroxyphenyl)pyrido[3,4-d]pyridazin-4-yl)amino)piperidin-1-carboxylate], for which the IC50 on NLRP3 amounted to 16 nM.

In the case of `CC(C)(O)CNc1nnc(-c2ccc(Cl)cc2O)c2ccc(C#N)cc12` [Compound 001, 1-(4-chloro-2-hydroxyphenyl)-4-((2-hydroxy-2-methylpropyl)amino) phthalazin-6-carbonitrile], the IC50 on NLRP3 is 88 nM.

Turning to `CC#Cc1ccc2c(-c3c(O)cc(C(F)(F)F)cc3F)nnc(NC[C@H](C)O)c2c1` [Compound 071, 3-fluoro-2-(4-(((S)-2-hydroxypropyl)amino)-6-(prop-1-yn-1-yl)phthalazin-1-yl)-5-(trifluoromethyl)phenol], the IC50 on NLRP3 came out at 23 nM.

For the compound `CC#Cc1ccc2c(-c3ccc(C(F)(F)F)cc3O)nnc(N[C@@H]3COCC[C@H]3O)c2c1` [Compound 067, (3R,4R)-3-((4-(2-hydroxy-4-(trifluoromethyl)phenyl)-7-(prop-1-yn-1-yl)phthalazin-1-yl)amino)tetrahydro-2H-pyran-4-ol], the IC50 on NLRP3 worked out at 66 nM.

For the compound `CC#Cc1ccc2c(-c3ccc(C(F)(F)F)cc3O)nnc(NC[C@H](O)CO)c2c1` [Compound 056, (S)-3-((4-(2-hydroxy-4-(trifluoromethyl)phenyl)-7-(prop-1-yn-1-yl)phthalazin-1-yl)amino) propan-1,2-diol], the half-inhibitory concentration (IC50) on NLRP3 amounted to 18 nM.

For `N#Cc1ccc2c(-c3ccc(Cl)cc3O)nnc(N[C@@H]3CCCN(C(=O)C4CC4)C3)c2c1` [Compound 005, (R)-1-(4-chloro-2-hydroxyphenyl)-4-((1-(cyclopropanecarbonyl)piperidin-3-yl)amino) phthalazin-6-carbonitrile], the IC50 on NLRP3 stood at 37 nM.

In the case of `OC[C@@H](O)CNc1nnc(-c2ccc(Cl)cc2O)c2ccc(C#CC3CC3)cc12` [Compound 079, (S)-3-((4-(4-chloro-2-hydroxyphenyl)-7-(cyclopropylethynyl)phthalazin-1-yl)amino) propan-1,2-diol], the concentration for half-maximal inhibition (IC50) at NLRP3 is 41 nM. Further, the inhibition at 10 mg/kg with IL-1β (setting [1]) is 51%; with IL-1β (setting [2]), 21%.

On to `CC(C(=O)N1CCCC1)N1CCC[C@@H](Nc2nnc(-c3ccc(Cl)cc3O)c3ccncc23)C1` (stereo partly drawn) [Compound 042], for which the IC50 on NLRP3 turned out to be 14 nM.
